Experimental data taken from patent US4085224A, “Method of increasing feed utilization” (Eli Lilly and Company, priority 1976, dated 1978).

Legend:
solubility = assay type: physicochemical
[1] = test system: Staphylococcus aureus (H-Heatley) NRRL B-314; test: turbidometric assay on semiautomated system (Autoturb), relative gram-positive activity; assay type: cell-based; details: relative to A-28086 factor A (standard); nutrient broth pH 7, four hours at 37° C.
Description: The C2 -C6 -acyl ester derivatives of A-28086 factor A also have antibacterial and antifungal activity. In one aspect, these derivatives have increased gram-positive activity. The relative gram-positive activities of certain of these derivatives were compared with the activity of factor A. The compounds were tested by turbidometric assay on a semiautomated system (Autoturb® microbiological assay system, Elanco) described by N. R. Kuzel and F. W. Kavanaugh in J. Pharmaceut. Sci. 60 (5), 764 and 767 (1971). In testing the A-28086 antibiotics, the following test parameters were used: Staphylococcus aureus (H-Heatley) NRRL B-314 in a nutrient broth medium (pH 7), incubated for four hours at 37° C. Test samples and the standard were dissolved in methanol-water (10:90). The standard, A-28086 factor A, was presented to the Autoturb® carrousel at concentrations of 2, 3, 4, and 5 mcg/ml. Test compounds were diluted to contain approximately 3 or 4 mcg of activity per ml, as presented to the carrousel. The relative activities of test compounds, as compared to that of the standard, are given below: […]

type III poliovirus = assay type: cell-based; details: in vitro plaque suppression
vaccinia virus = assay type: cell-based; details: in vitro plaque suppression
herpes virus = test: in vitro plaque suppression test; assay type: cell-based
Semliki Forest virus = test: in vitro plaque suppression test; assay type: cell-based
[2] = test system: Transmissible Gastro-enteritis virus; assay type: cell-based
Newcastle Disease virus = assay type: cell-based; details: tissue-culture
[3] = test system: Infectious Bovine Rhinotracheitis virus; assay type: cell-based
Eimeria tenella = test: anticoccidial activity in chicks (Table VIII); assay type: in vivo; details: for Percent Weight Gain: normal controls 100
Eimeria acervulina = test: anticoccidial activity in chicks (Table IX); assay type: in vivo; details: E. acervulina; for Average Lesion Score: infected controls 1.60; for Oocysts Passed, Total/Bird: infected controls 36.32; for Percent Weight Gain: infected controls 63
Source text: (§1) ^1 Four replicates, 5 broiler cockerels each

Eimeria maxima = test: anticoccidial activity in chicks (Table IX); assay type: in vivo; details: E. maxima, 0.005 percent in feed
Source text: as §1

Emeria brunetti = test: anticoccidial activity in chicks (Table IX); assay type: in vivo; details: E. brunetti, 0.005 percent in feed
Source text: as §1

[4] = test system: E. necatrix and E. tenella; test: anticoccidial activity in chicks, mixed infection (Table X); assay type: in vivo; details: 0.005 percent in feed
Source text: (§2) ^1 Four replicates, 5 broiler cockerels each.

[5] = test system: E. tenella, E. necatrix, E. maxima, E. brunetti, E. acervulina, and E. mivati; test: as above; assay type: in vivo; details: 0.01 percent in feed
Source text: as §2

ruminal propionic acid = ruminal propionic acid concentration in fistulated steers; assay type: in vivo; details: mean of five analyses in 14-day treatment
Description: The test reported in Table XII was conducted with mature fistulated steers weighing about 1,000 lbs. each. Two steers were fed a normal diet, and four steers in each treatment group were fed an identical diet to which A-28086 factor A had been added. To each aliquot (100 ml) of rumen fluid taken, 10 percent metaphosphoric acid (100 ml) was added. The samples were allowed to settle, and the supernatants were analyzed by gas chromatographic methods to determine propionic acid concentrations.
The results in Table XII are the mean percent increases in ruminal propionic acid concentration, averaged over five analyses in a 14-day treatment period. Controls had approximately 20 molar percent propionic acid.

[6] = feed-utilization efficiency in sheep; assay type: in vivo; details: 56 days; for Feed Intake: control 3.56; for Feed/Gain: control 8.38; for Average Daily Gain: control .42
[7] = first group, 0.01 percent in feed
[8] = first group, 0.02 percent in feed
[9] = first group, 0.04 percent in feed
[10] = second group, 0.0025 percent in feed
[11] = second group, 0.005 percent in feed
[12] = second group, 0.01 percent in feed
[13] = second group, 0.02 percent in feed

SMILES: CCC(C(=O)O)C1OC(C(C)C(O)C(C)C(=O)C(CC)C2OC3(C=CC(O)C4(CCC(C)(C5CCC(O)(CC)C(C)O5)O4)O3)C(C)CC2C)C(C)CC1C (stereo not drawn) [A-28086 factor A]
- solubility in organic solvents (solubility; organic solvents such as methanol, ethanol, DMF, DMSO, ethyl acetate, chloroform, acetone, benzene): soluble
- solubility in water (solubility; water): insoluble in water
- Relative G+ Activity [1]: 1
- antiviral activity (type III poliovirus): active
- antiviral activity (vaccinia virus): active
- antiviral activity (herpes virus): active
- antiviral activity (Semliki Forest virus): active
- antiviral activity [2]: active
- antiviral activity (Newcastle Disease virus): active
- antiviral activity [3]: active
- Percent Reduction in Lesion Score (Eimeria tenella; [7]): 95%
- Percent Mortality (Eimeria tenella; first group, 0.01 percent in feed, 10 chickens): 0%
- Average Lesion Score (Eimeria tenella; first group, 0.01 percent in feed, infected controls 3.65): 0.2
- Percent Weight Gain (Eimeria tenella; [7]): 94%
- Percent Reduction in Lesion Score (Eimeria tenella; [8]): 95%
- Percent Mortality (Eimeria tenella; first group, 0.02 percent in feed, 10 chickens): 0%
- Average Lesion Score (Eimeria tenella; first group, 0.02 percent in feed, infected controls 3.65): 0.2
- Percent Weight Gain (Eimeria tenella; [8]): 82%
- Percent Reduction in Lesion Score (Eimeria tenella; [9]): 100%
- Percent Mortality (Eimeria tenella; first group, 0.04 percent in feed, 10 chickens): 0%
- Average Lesion Score (Eimeria tenella; first group, 0.04 percent in feed, infected controls 3.65): 0
- Percent Weight Gain (Eimeria tenella; [9]): 50%
- Percent Reduction in Lesion Score (Eimeria tenella; [10]): 0%
- Percent Mortality (Eimeria tenella; second group, 0.0025 percent in feed, 20 chickens): 10%
- Average Lesion Score (Eimeria tenella; second group, 0.0025 percent in feed, infected controls 3.85): 3.85
- Percent Weight Gain (Eimeria tenella; [10]): 87%
- Percent Reduction in Lesion Score (Eimeria tenella; [11]): 27%
- Percent Mortality (Eimeria tenella; second group, 0.005 percent in feed, 20 chickens): 0%
- Average Lesion Score (Eimeria tenella; second group, 0.005 percent in feed, infected controls 3.85): 2.8
- Percent Weight Gain (Eimeria tenella; [11]): 91%
- Percent Reduction in Lesion Score (Eimeria tenella; [12]): 100%
- Percent Mortality (Eimeria tenella; second group, 0.01 percent in feed, 20 chickens): 0%
- Average Lesion Score (Eimeria tenella; second group, 0.01 percent in feed, infected controls 3.85): 0
- Percent Weight Gain (Eimeria tenella; [12]): 96%
- Percent Reduction in Lesion Score (Eimeria tenella; [13]): 100%
- Percent Mortality (Eimeria tenella; second group, 0.02 percent in feed, 20 chickens): 0%
- Average Lesion Score (Eimeria tenella; second group, 0.02 percent in feed, infected controls 3.85): 0
- Percent Weight Gain (Eimeria tenella; [13]): 84%
- Oocysts Passed, Percent Reduction (Eimeria acervulina; 0.0025 percent in feed): 86%
- Percent Mortality (Eimeria acervulina; 0.0025 percent in feed): 0%
- Average Lesion Score (Eimeria acervulina; 0.0025 percent in feed): 1.25
- Oocysts Passed, Total/Bird (Eimeria acervulina; 0.0025 percent in feed): 4.91 1 × 10^6
- Percent Weight Gain (Eimeria acervulina; 0.0025 percent in feed): 82%
- Oocysts Passed, Percent Reduction (Eimeria acervulina; 0.005 percent in feed): 83%
- Percent Mortality (Eimeria acervulina; 0.005 percent in feed): 0%
- Percent Reduction in Lesion Score (Eimeria acervulina; 0.005 percent in feed): 53%
- Average Lesion Score (Eimeria acervulina; 0.005 percent in feed): 0.75
- Oocysts Passed, Total/Bird (Eimeria acervulina; 0.005 percent in feed): 6.15 1 × 10^6
- Percent Weight Gain (Eimeria acervulina; 0.005 percent in feed): 87%
- Oocysts Passed, Percent Reduction (Eimeria maxima): 40%
- Percent Mortality (Eimeria maxima): 0%
- Percent Reduction in Lesion Score (Eimeria maxima): 85%
- Average Lesion Score (Eimeria maxima; infected controls 1.3): 0.2
- Oocysts Passed, Total/Bird (Eimeria maxima; infected controls 3.24): 1.95 1 × 10^6
- Percent Weight Gain (Eimeria maxima; infected controls 65): 85%
- Oocysts Passed, Percent Reduction (Emeria brunetti): 58%
- Percent Mortality (Emeria brunetti): 0%
- Average Lesion Score (Emeria brunetti; infected controls 1.7): 1.2
- Oocysts Passed, Total/Bird (Emeria brunetti; infected controls 5.55): 2.31 1 × 10^6
- Percent Weight Gain (Emeria brunetti; infected controls 62): 88%
- Cecal Lesions, Percent Reduction [4]: 50%
- Intestinal Lesions, Percent Reduction [4]: 59%
- Intestinal Lesions, Average ([4]; infected controls 1.7): 0.7
- Cecal Lesions, Average ([4]; infected controls 3.5): 1.75
- Percent Mortality ([4]; infected controls 20): 0%
- Percent Weight Gain ([4]; infected controls 52): 94%
- Cecal Lesions, Percent Reduction [5]: 73%
- Intestinal Lesions, Percent Reduction [5]: 79%
- Intestinal Lesions, Average ([5]; infected controls 1.9): 0.4
- Cecal Lesions, Average ([5]; infected controls 3.3): 0.9
- Percent Weight Gain ([5]; infected controls 12): 91%
- Percent Mortality ([5]; infected controls 50): 0%
- Percent Increase Over Control in ruminal propionic acid concentration (ruminal propionic acid; 25 mg/day): 17.4%
- Percent Increase Over Control in ruminal propionic acid concentration (ruminal propionic acid; 100 mg/day): 54.0%
- Feed Intake ([6]; 9 g per ton of feed): 3.29 lbs./day
- Feed/Gain ([6]; 9 g per ton of feed): 7.40
- Average Daily Gain ([6]; 9 g per ton of feed): .44 lbs./day
- Feed Intake ([6]; 18 g per ton of feed): 3.15 lbs./day
- Feed/Gain ([6]; 18 g per ton of feed): 8.31
- Average Daily Gain ([6]; 18 g per ton of feed): .38 lbs./day
- feed-utilization efficiency (in words) ([6]; sheep): increases feed-utilization efficiency
